In patent US20240409519A1, “HYDROGENATED QUINOXALINES” (OTSUKA PHARMACEUTICAL CO., LTD., priority 2021, published 2024):

What was measured:
Format in all cases: in vitro ADME
CYP2D6 = molecular target: T1, CYP2D6 (Homo sapiens, UniProt P10635); test: CYP inhibition test (2): 50% inhibitory concentration from 3 concentrations, CYP2D6; conditions: human liver microsome, bufuralol substrate, 0.01, 0.03 and 0.1 mmol/L; read-out: 50% inhibitory concentration, 2D6
T1 construct: a human liver microsome solution containing three CYP-specific substrates; from tissue; host or cells: human liver microsomes
Method: (§1) A metabolic reaction was initiated by adding and mixing a test compound solution (final concentration 0.01, 0.03 and 0.1 mmol/L) and a NADH/NADPH solution (final concentration 1 mmol/L) to a human liver microsome solution containing three CYP-specific substrates (final concentration 100 mmol/L potassium phosphate buffer solution (pH 7.4), 5 mmol/L magnesium chloride, 0.1 mg/mL human liver microsome, 0.005 mmol/L diclofenac (for CYP2C9), 0.01 mmol/L bufuralol (for CYP2D6), 0.005 mmol/L midazolam (for CYP3A4)). As an internal standard solution, a solution of each of stable isotopes of the metabolites (50 ng/mL [13C6] hydroxy diclofenac, 5 ng/mL [2H9] hydroxy bufuralol, and 5 ng/mL [13C6] hydroxy midazolam (all stable isotopes)) in methanol was prepared and used as a quenching solution. Specifically, a metabolic reaction was initiated by adding and mixing 2 μL of a solution of a test compound in acetonitrile (or acetonitrile as a control) to 178 μL of a human liver microsome solution in ice water, followed by preincubation at 37° C. for 1 minute, and then adding 20 μL of a NADH/NADPH solution thereto. After incubation at 37° C. for 10 minutes, 50 μL of the reaction mixture was taken, and then it was added and mixed to 500 μL of a quenching solution to quech the reaction. The mixture was centrifuged (6130 g, 4° C., 10 minutes) and the supernatant was used as a sample for LC-MS/MS. Peak area ratio ([peak area of metabolite]/[peak area of corresponding stable isotope]) was calculated for a metabolite and a stable isotope of the metabolite as measurement object. By comparing the peak area ratio of each test compound solution with that of the control, the inhibition rate (%) of each CYP species for each test compound was calculated from (1−[peak area ratio of each test compound solution]/[peak area ratio of control])×100.

CYP3A4 = molecular target: T2, CYP3A4 (Homo sapiens, UniProt P08684); test: CYP inhibition test (2): 50% inhibitory concentration from 3 concentrations, CYP3A4; conditions: human liver microsome, midazolam substrate, 0.01, 0.03 and 0.1 mmol/L; read-out: 50% inhibitory concentration, 3A4
T2 construct: a human liver microsome solution containing three CYP-specific substrates; from tissue; host or cells: human liver microsomes
Method: as §1

CYP2C9 = molecular target: T3, CYP2C9 (Homo sapiens, UniProt P11712); test: CYP inhibition test (2): 50% inhibitory concentration from 3 concentrations, CYP2C9; conditions: human liver microsome, diclofenac substrate, 0.01, 0.03 and 0.1 mmol/L, read-out: 50% inhibitory concentration, 2C9
T3 construct: a human liver microsome solution containing three CYP-specific substrates; from tissue; host or cells: human liver microsomes
Method: as §1

T1 sequence (P10635 whole entry): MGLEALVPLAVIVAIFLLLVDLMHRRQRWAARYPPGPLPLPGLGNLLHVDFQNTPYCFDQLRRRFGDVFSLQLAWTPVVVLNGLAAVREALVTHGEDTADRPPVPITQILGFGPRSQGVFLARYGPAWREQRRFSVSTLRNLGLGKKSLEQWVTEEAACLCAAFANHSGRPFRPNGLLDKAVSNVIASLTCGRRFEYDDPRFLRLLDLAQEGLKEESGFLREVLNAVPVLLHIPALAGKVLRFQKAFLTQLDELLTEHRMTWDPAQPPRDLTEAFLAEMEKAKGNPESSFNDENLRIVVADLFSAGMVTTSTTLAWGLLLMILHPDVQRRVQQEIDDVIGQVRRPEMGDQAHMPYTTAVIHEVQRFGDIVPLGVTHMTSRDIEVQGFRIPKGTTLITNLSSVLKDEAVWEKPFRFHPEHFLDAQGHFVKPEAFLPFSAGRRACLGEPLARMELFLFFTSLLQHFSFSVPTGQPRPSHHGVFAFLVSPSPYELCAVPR
T2 sequence (P08684 whole entry): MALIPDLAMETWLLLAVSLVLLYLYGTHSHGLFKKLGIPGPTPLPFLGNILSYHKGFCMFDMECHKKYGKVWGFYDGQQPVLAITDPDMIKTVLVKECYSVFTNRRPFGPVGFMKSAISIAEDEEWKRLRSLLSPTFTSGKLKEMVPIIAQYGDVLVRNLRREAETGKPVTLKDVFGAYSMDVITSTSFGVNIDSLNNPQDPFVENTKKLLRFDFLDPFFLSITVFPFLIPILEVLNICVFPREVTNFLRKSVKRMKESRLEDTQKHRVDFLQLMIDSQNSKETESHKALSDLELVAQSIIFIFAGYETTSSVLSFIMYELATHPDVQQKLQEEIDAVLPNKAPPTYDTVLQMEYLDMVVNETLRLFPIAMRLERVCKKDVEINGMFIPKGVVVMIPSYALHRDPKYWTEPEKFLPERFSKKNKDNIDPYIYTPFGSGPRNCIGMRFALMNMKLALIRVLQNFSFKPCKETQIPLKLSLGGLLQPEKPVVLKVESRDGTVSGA
T3 sequence (P11712 whole entry): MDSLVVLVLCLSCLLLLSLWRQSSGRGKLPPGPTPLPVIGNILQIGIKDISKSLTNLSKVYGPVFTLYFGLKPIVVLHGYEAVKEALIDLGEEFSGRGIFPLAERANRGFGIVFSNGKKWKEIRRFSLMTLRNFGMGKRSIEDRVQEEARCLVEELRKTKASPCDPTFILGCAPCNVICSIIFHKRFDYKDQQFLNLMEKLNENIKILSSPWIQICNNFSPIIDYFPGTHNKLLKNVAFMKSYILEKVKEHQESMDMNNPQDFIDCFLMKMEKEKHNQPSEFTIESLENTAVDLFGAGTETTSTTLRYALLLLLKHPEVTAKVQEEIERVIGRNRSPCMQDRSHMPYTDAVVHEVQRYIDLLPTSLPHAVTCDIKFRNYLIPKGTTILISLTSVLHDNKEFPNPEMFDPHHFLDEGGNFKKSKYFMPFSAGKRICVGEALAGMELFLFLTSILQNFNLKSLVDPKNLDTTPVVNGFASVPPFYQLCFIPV

IC50 (CYP2D6)	IC50 (CYP3A4)	IC50 (CYP2C9)	IC50 at 10 min (CYP2C9; human liver microsomes, pH 7.4, probe diclofenac (0.005 mmol/L))	Compound
> 100 µM	> 100 µM	> 100 µM		C[C@@H]1CN(c2cc(F)c(OCCO)c(Cl)c2)[C@H]2CCCC[C@@H]2N1 [Example 17, 2-(2-chloro-6-fluoro-4-((3R,4aS,8aS)-3-methyloctahydroquinoxalin-1(2H)-yl)phenoxy)ethan-1-ol 1/2fumarate]
> 100 µM	> 100 µM	> 100 µM		CC1(C)CN(c2cc(F)c(OCCO)c(F)c2)[C@H]2CCCC[C@@H]2N1 [Example 34, 2-(4-((4aS,8aS)-3,3-dimethyloctahydroquinoxalin-1(2H)-yl)-2,6-difluorophenoxy)ethan-1-ol]
87.6 µM	> 100 µM		100 µM	CC1(C)CN(c2cc(F)c(OCCO)c(F)c2)[C@H]2CCCC[C@H]2N1 [Example 36]
> 100 µM	> 100 µM	> 100 µM		COc1cc(N2CC(C)(C)N[C@H]3CCCC[C@@H]32)ccc1OC(F)(F)CO [Example 26]
55.5 µM	> 100 µM	> 100 µM		CC1(C)CN(c2cc(F)c(OCCO)c(F)c2)[C@@H]2CCCC[C@H]2N1 [Example 35]
> 100 µM	> 100 µM	> 100 µM		CC1(C)CN(c2ccc(OCCO)c(Cl)c2)[C@@H]2CCCC[C@H]2N1 [Example 28]
> 100 µM	86.7 µM	> 100 µM		CN1[C@H]2CCCC[C@@H]2N(c2ccc(OC(F)(F)CO)cc2)CC1(C)C [Example 37, 2,2-difluoro-2-(4-((4aS,8aS)-3,3,4-trimethyloctahydroquinoxalin-1(2H)-yl)phenoxy)ethan-1-ol]
> 100 µM	62.8 µM	> 100 µM		Cc1cc(N2CC(C)(C)N[C@@H]3CCCC[C@H]32)ccc1OC(F)(F)CO [Example 32]
> 100 µM	62.5 µM	> 100 µM		Cc1cc(N2CC(C)(C)N[C@H]3CCCC[C@@H]32)ccc1OC(F)(F)CO [Example 31]
59.1 µM	> 100 µM	> 100 µM		C[C@H]1CN(c2cc(F)c(OCCO)c(Cl)c2)[C@H]2CCCC[C@H]2N1 [Example 18]
> 100 µM	94.9 µM	> 100 µM		CC1(C)CN(c2ccc(OC(F)(F)CO)cc2)[C@H]2CCCC[C@@H]2N1 [Example 20, 2-(4-((4aS,8aS)-3,3-dimethyloctahydroquinoxalin-1(2H)-yl)phenoxy)-2,2-difluoroethan-1-ol]
> 100 µM	> 100 µM	> 100 µM		CC1(C)CN(c2ccc(OC(F)(F)CO)cc2)[C@@H]2CCCC[C@H]2N1 [Example 21]
> 100 µM	> 100 µM	> 100 µM		CC1(C)CN(c2ccc(OCCO)c(Cl)c2)[C@H]2CCCC[C@@H]2N1 [Example 27, 2-(2-chloro-4-((4aS,8aS)-3,3-dimethyloctahydroquinoxalin-1(2H)-yl)phenoxy)ethan-1-ol]
